Test results from patent publication EP0840781B1, “METHODS AND DEVICES FOR THE REMOVAL OF PSORALENS FROM BLOOD PRODUCTS” (Cerus Corporation, priority 1995, dated 1996).
Like-named read-outs stand apart in the source and are kept apart here.

What was measured:
[1] = tested on: Male Balb/c mice; conditions: for bone marrow toxicity or micronucleus formation: experiment repeated using increased dose levels
Protocol: Male Balb/c mice were then injected with 0.1 ml of a compound solution via the tail vein. At least 3 mice were injected per dose level Saline only was used as a negative control. For a positive control, cyclophosphamide (cycloPP) was administered at a dose of 30 mg/kg. In the experimental group, the injections were repeated once per day for four days. In the positive control group, the sample was administered only once, on day three. On day 5, several microliters of blood were withdrawn from each subject and smeared on a glass slide. Cells were fixed in absolute methanol and stored in a slide rack.
For analysis, cells were stained with acridine orange and visualized under a fluorescence microscope by counting: (i) the number of reticulocytes per 5000 erythrocytes; and (ii) the number of micronucleated reticulocytes per 1000 reticulocytes. Reticulocytes were distinguished by their red fluorescence due to the presence of RNA. Micronuclei were distinguished by their green fluorescence due to the presence of DNA. The percentage of reticulocytes (%PCE) was then calculated. A decrease in the frequency of erythrocytes, represented by an increase in the percentage of reticulocytes, is an indication of bone marrow toxicity. The percentage of reticulocytes with micronuclei (%PCE with MN) was also calculated. An increase in %PCE with MN is a measure of elastogenicity.
After initial results were determined, the experiment was repeated using increased dose levels, until: (i) Micronucleus formation was seen; or (ii). Bone marrow toxicity was observed; or (iii) The lethal dose was reached; or (iv) A dose of 5 g/kg was administered.

[2] = tested on: HIV-1; conditions: 1 Minute Irradiation
Protocol: Pathogen inactivation efficiency of several compounds described herein was evaluated by examining the ability of the compounds to inactivate cell-free virus (HIV). Inactivation of cell-free HIV was performed as follows.
As in the R17 assay, small aliquots of the compounds listed in TABLES 10 and 11, below, at the concentrations listed in the table, were added to stock HIV-1 to a total of 0.5 mL. The stock HIV (10^5 - 10^7 plaque forming units/mL) was in DMEM/15% FBS. […] Controls included HIV-I stock only, HIV-1 plus UVA only, and HIV-I plus the highest concentration of each psoralen tested, with no UVA. Post irradiation. all samples were store frozen at -70° C until assayed for infectivity by a microtiter plaque assay. Aliquots for measurement of residual HIV infectivity in the samples treated with a compound of the present invention were withdrawn and cultured.
Residual HIV infectivity was assayed using an MT-2 infectivity assay. […] The assay medium was 85% DMEM (with a high glucose concentration) containing 100 µg of streptomycin, 100 U of penicillin, 50 µg of gentamicin, and 1 µg of amphotericin B per mL, 15% FBS and 2 µg of Polybrene (Sigma Chemical Co., St. Louis, Mo.) per mL. Test and control samples from the inactivation procedure were diluted in 50% assay medium and 50% normal human pooled plasma. The samples were serially diluted directly in 96-well plates (Coming Glass Works, Coming, N.Y.). The plates were mixed on an oscillatory shaker for 30 seconds and incubated at 37°C in a 5% CO2 atmosphere for 1 to 18 hours. […] After an additional 1 hour of incubation at 37°C in 5% CO2, 0.075 mL of assay medium containing 1.6% SeaPlaque agarose (FMC Bioproducts, Rockland, Maine) and prewarmed to 38.5°C was added to each well. The plates were kept at 37°C for a few minutes until several plates had accumulated and then centrifuged in plate carriers at 600 x g for 20 minutes in a centrifuge precooled to 10°C. In the centrifuge, cell monolayers formed prior to gelling of the agarose layer. The plates were incubated for 5 days at 37°C in 5% CO2 and stained by the addition of 0.05 mL of 50 µg/mL propidium iodide (Sigma Chemical Co.) in phosphate-buffered saline (pH 7.4) to each well. After 24 to 48 hours, the red fluorescence-stained microplaques were visualized by placing the plates on an 8,000 µW/cm^2 304 nm UV light box (Fotodyne, Inc., New Berlin, Wis.). The plaques were counted at a magnification of x20 to x25 through a stereomicroscope.

[3] = tested on: R17; assay: r-17 bacteriophage assay: R17 treated with compound and UVA, remaining titer by plaque count on Hfr 3000 bacteria; type: cell-based; conditions: for R17 inactivation efficiency compared with AMT: varying concentration (Tables 7 and 8, FIGS. 6-10)
Protocol: In the r-17 assay, the bacteriophage was placed in a solution with each compound tested and was then irradiated. The ability of the phage to subsequently infect bacteria and inhibit their growth was measured. The bacteriophage was selected for its relatively accessible nucleic acid such that the culture growth inhibition would accurately reflect nucleic acid damage by the test compounds. The bacteriophage assay for nucleic acid binding to test compounds offers a safe and inexpensive procedure to identify compounds likely to display efficient pathogen inactivation. Previous experiments support that the r-17 assay accurately measures HIV-1 sensitivity to similar compounds. […] Modified Eagles Medium (DMEM) to a final phage concentration of 10^9/mL. An aliquot (0.5 mL) was transferred to a 1.5 mL snap-top polyethylene tube. […] Louis, MO). The tubes were placed in a light device as described in EXAMPLE 1 and irradiated for between 1 and 10 minutes. […] To make the dilutions. a 0.100 mL aliquot of the irradiated solution of phage and test compound was added to the first dilution tube of 0.4 mL of media then 0.020 mL of this solution was added to the second tube of 0.5 mL medium (1:25). […] After the top agar hardened, the plates were incubated at 37 °C overnight. The plaque forming units were then counted the following morning and the titer of the phage remaining after phototreatment was calculated based on the dilution factors. The following controls were run: the "phage only" in which phage was not treated with test compound and not irradiated (listed as "starting titer" in the tables below); the "UV only" in which the phage was irradiated in the absence of test compound; and the "dark" control in which the phage/test compound solution was not irradiated before it was diluted and plated. Compounds described herein were also tested at a constant concentration for varying doses of UV light. […] The compound tested was added at the desired concentration and the samples were vortexed. […] Between each 1.0 J/cm^2 intervals, 100µL was removed from each sample and placed in the first corresponding dilution tube, then five sequential dilutions were performed for each compound tested, at all 3 irradiation doses, as described above in this example. […] The contents of each tube was poured into its own LB plate and the plates were incubated overnight at 37 °C. Plaques were counted by visual inspection the following morning.

[4] = tested on: Pseudomonas; assay: Bacterial inactivation by compound plus UVA, colony forming units; type: cell-based; conditions: 16 µM; 5 J/cm^2 irradiation; starting titer 6.5 logs
Protocol: In this example bacterial inactivation by the photoreactive nucleic acid binding compounds described herein was measured as a function of the ability of the bacteria to subsequently replicate. A gram negative bacteria was chosen as representative of the more difficult bacterial strains to inactivate.
The bacteria a strain of Pseudomonas, was inoculated into LB with a sterile loop and grown overnight in a shaker at 37°C. Based on the approximation that one OD at 610 nm is equivalent to 5 x 10^8 colony forming units (cfu)/mL, a 1:10 dilution of the culture was measured on a spectrophotometer. (manufactured by Shimatsu). The bacterial culture was added to a solution of 15% fetal bovine serum in DMEM to a final bacteria concentration of approximately 10^6/mL. An aliquot (0.8 mL) was transferred to a 1.5 mL snap-top polyethylene tube. An aliquot (0.004-0.040 mL) of the test compound stock solution prepared in water, ethanol or dimethylsulfoxide at 0.80-8.0 mM was added to the tube. Compounds were tested at a concentration of 16 µM. The tubes were placed in a light device as described in EXAMPLE I and irradiated with 1.3 J/cm^2, 1.2 J/cm^2, and finally 2.5 J/cm^2, for a total of 5 J/cm^2. 150 µL were removed for testing after each pulse period. Sterile 13 mL dilution tubes were prepared; each test compound required one tube with 0.4 mL of LB broth and four tubes containing 0.5 mL of LB broth. To make the dilutions, a 0.050 mL aliquot of the irradiated solution of phage and test compound was added to the first dilution tube of […] of media then 0.050 mL of this solution was added to the second tube of 0.5 mL medium (1:10). The second solution was then diluted serially (1:10) into the remaining tubes. 100 µL of the original sample and each dilution are plated separately onto LB agar plates and incubated at 37 °C overnight. The colony forming units were then counted the following morning and the titer of the phage remaining after phototreatment was calculated based on the dilution factors.
The following controls were run: the "bacteria only" in which bacteria was not treated with test compound and not irradiated (listed as "starting titer" in the tables below); the "UV only" in which the bacteria was irradiated in the absence of test compound. Dark controls were not performed here for reasons set forth in Example 12 above.

[5] = 16 µM, HIV Starting Titer Approximately 5.4 Logs (Table 11)
[6] = 32 µM, HIV Starting Titer Approximately 5.4 Logs (Table 11)
[7] = 64 µM, HIV Starting Titer Approximately 5.4 Logs (Table 11)
[8] = 16 µM, 1 Minute Irradiation, Starting Titer Approx. 7.1 Logs (Table 9)
[9] = 16 µM, 1 Minute irradiation = 1.2 J/cm^2, Starting Titer Approx. 7.1 Logs (Table 8)
[10] = 32 µM, 1 Minute irradiation = 1.2 J/cm^2, Starting Titer Approx. 7.1 Logs (Table 8)
[11] = 16 µM, HIV Starting Titer Approximately 5 Logs (Table 10)
[12] = 32 µM, HIV Starting Titer Approximately 5 Logs (Table 10)
[13] = 64 µM, HIV Starting Titer Approximately 5 Logs (Table 10)
[14] = 8 µM, 1 Minute Irradiation, Starting Titer Approx. 7.2 Logs (Table 7)
[15] = 16 µM, 1 Minute Irradiation, Starting Titer Approx. 7.2 Logs (Table 7)
[16] = 32 µM, 1 Minute Irradiation, Starting Titer Approx. 7.2 Logs (Table 7)
[17] = male, Balb/c, mouse, in vivo, 25 mg/kg, 5 day
[18] = male, Balb/c, mouse, in vivo, 40 mg/kg, 5 day

Row | SMILES | bone marrow toxicity or micronucleus formation [1] | HIV Log Kill [2, 5] | HIV Log Kill [2, 6] | HIV Log Kill [2, 7] | R17 Log Kill [3, 8] | R17 Log Kill [3, 9] | R17 Log Kill [3, 10] | R17 inactivation efficiency compared with AMT [3] | log kill of bacteria (Pseudomonas) [4] | HIV Log Kill [2, 11] | HIV Log Kill [2, 12] | HIV Log Kill [2, 13] | R17 Log Kill [3, 14] | R17 Log Kill [3, 15] | R17 Log Kill [3, 16] | also measured
1 | Cc1cc(=O)oc2c(C)c3oc(COCCN)c(C)c3cc12 [Compound 18, 5'-(4-amino-2-oxa)butyl-4,4',8-trimethylpsoralen] | the acutely lethal dose was reached before there were any signs of bone marrow toxicity or micronucleus formation | 1.0 | 1.0 | 3.1 |  |  |  |  |  |  |  |  |  |  |  | 
2 | Cc1oc2c(C)c3oc(=O)cc(C)c3cc2c1CNCCCCN [Compound 6, 4'-(6-amino-2-aza)hexyl4,5',8-trimethylpsoralen] | the acutely lethal dose was reached before there were any signs of bone marrow toxicity or micronucleus formation | 2.1 | 3.2 | >2.8 | >6 | 6.1 | >6.1 | significantly higher inactivation efficiency than does AMT | > 5.5 logs | 2.0 | 3.1 | >3.8 |  |  |  | R17 Log Kill ([3]; 8 µM, 1 Minute Irradiation, Starting Titer Approx. 7.1 Logs (Table 9)): >6; R17 Log Kill ([3]; 64 µM, 1 Minute irradiation = 1.2 J/cm^2, Starting Titer Approx. 7.1 Logs (Table 8)): >6.1; efficiency at inactivating R17 compared with AMT ([3]; constant concentration, varying doses of UV light 1.0-3.0 J/cm^2 (FIGS. 11-17)): more efficient at inactivating R17 than was AMT; PCE/RBC (%) ([1]; Dose 45 mg/kg, tail vein, once per day for four days, blood on day 5): 3.79 ± 10.41%
3 | Cc1oc2c(C)c3oc(=O)cc(C)c3cc2c1COCCN [Compound 2, 4'-(4-amino-2-oxa)butyl-4,5',8-trimethylpsoralen] | the acutely lethal dose was reached before there were any signs of bone marrow toxicity or micronucleus formation |  |  |  |  |  |  | significantly higher inactivation efficiency than does AMT | > 5.5 logs | 1.4 | 3.8 | >4.5 | 3.8 | >6.2 | >6.2 | PCE + MN (%) [1, 17]: 0.25 ± 0.11%; PCE/RBC (%) [1, 17]: 3.46 ± 0.32%; PCE + MN (%) [1, 18]: 0.20 ± 0.14%; PCE/RBC (%) [1, 18]: 3.08 ± 0.82%
4 | Cc1oc2c(C)c3oc(=O)cc(C)c3cc2c1CN [AMT, 4'-Aminomethyl-4,5',8-trimethylpsoralen, reference compound] |  |  |  |  | >6 | 4.5 | 4.8 |  | 5.2 logs | 1.4 |  |  | 2.7 | 4.6 | >6.2 | R17 Log Kill ([3]; 32 µM, 1 Minute Irradiation, Starting Titer Approx. 7.1 Logs (Table 9)): >6; R17 log kill (32 µM) ([3]; 32 µM, 1 Minute Irradiation, Starting Titer Approx. 7.5 Logs (Table 6)): >6.7
